Reference: ChEMBL document CHEMBL1909294, “Translating clinical findings into knowledge in drug safety evaluation--drug induced liver injury prediction system (DILIps)” (PLoS Comput Biol, 2011)
*1 amine or outer side, *2 acyl side, *3 side chain or, on linkers, in order; H or OH if unused. Where a SMILES comes first, the peptide text is derived from it. Bridges are numbered along the chain shown (N, C = ends). [ ]: non-standard residue; d: D form. The star is where a group is joined. pTerphenylCO(4''-OnC5H11) = CCCCCOc1ccc(-c2ccc(-c3ccc(C(=O)*)cc3)cc2)cc1; Orn(4R-OH,5R-OH) = O=C([C@H](C[C@@H](O)[C@@H](O)N[*:3])N[*:1])[*:2]; hTyr(3S-OH,4S-OH) = N[C@H](C(=O)O)[C@H](O)[C@@H](O)c1ccc(O)cc1; Pro(3S-OH,4S-Me) = C[C@H]1CN[C@H](C(=O)O)[C@H]1O; Hyp = O=C(O)[C@@H]1C[C@@H](O)CN1

Key:
Hepatotoxicity [1] = test system: Hepatotoxicity;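 on HepSE bilirubinemia: bilirubinemia hepatic side effect score drawn from the DILIps training data, a prediction system for drug-induced liver injury; call rule not given here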;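 on HepSE cholecystitis: Cholecystitis-related hepatic side effect score drawn from the DILIps (drug-induced liver injury prediction) training data set; call rule not given here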;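 on HepSE cholelithiasis: hepatic side effect score for cholelithiasis, drawn from the DILIps training data for predicting drug-induced liver injury; call rule not given here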;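 on HepSE cirrhosis: cirrhosis hepatic side effect score taken from the DILIps (drug-induced liver injury prediction) training set; call rule not given here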;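 on HepSE elevated liver function tests: hepatic side effect score for raised liver function tests, as recorded in the DILIps training set used for predicting drug-induced liver injury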; on HepSE hepatic failure: call rule not given here;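 on HepSE hepatomegaly: hepatic side effect score for hepatomegaly, taken from the training set of the DILIps drug-induced liver injury prediction system; call rule not given here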
Hepatotoxicity [2] = test system: Hepatotoxicity; remark: listed apart in the source;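 on HepSE bilirubinemia: bilirubinemia hepatic side effect score drawn from the DILIps training data, a prediction system for drug-induced liver injury; call rule not given here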;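 on HepSE cholecystitis: Cholecystitis-related hepatic side effect score drawn from the DILIps (drug-induced liver injury prediction) training data set; call rule not given here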;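 on HepSE cholelithiasis: hepatic side effect score for cholelithiasis, drawn from the DILIps training data for predicting drug-induced liver injury; call rule not given here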;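 on HepSE cirrhosis: cirrhosis hepatic side effect score taken from the DILIps (drug-induced liver injury prediction) training set; call rule not given here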;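 on HepSE elevated liver function tests: hepatic side effect score for raised liver function tests, as recorded in the DILIps training set used for predicting drug-induced liver injury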; on HepSE hepatic failure: call rule not given here;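 on HepSE hepatomegaly: hepatic side effect score for hepatomegaly, taken from the training set of the DILIps drug-induced liver injury prediction system; call rule not given here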
Hepatotoxicity [3] = test system: Hepatotoxicity; remark: listed apart in the source;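 on HepSE bilirubinemia: bilirubinemia hepatic side effect score drawn from the DILIps training data, a prediction system for drug-induced liver injury; call rule not given here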;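 on HepSE cholecystitis: Cholecystitis-related hepatic side effect score drawn from the DILIps (drug-induced liver injury prediction) training data set; call rule not given here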;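 on HepSE cholelithiasis: hepatic side effect score for cholelithiasis, drawn from the DILIps training data for predicting drug-induced liver injury; call rule not given here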;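 on HepSE cirrhosis: cirrhosis hepatic side effect score taken from the DILIps (drug-induced liver injury prediction) training set; call rule not given here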;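 on HepSE elevated liver function tests: hepatic side effect score for raised liver function tests, as recorded in the DILIps training set used for predicting drug-induced liver injury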; on HepSE hepatic failure: call rule not given here
Hepatotoxicity [4] = test system: Hepatotoxicity; remark: listed apart in the source;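 on HepSE bilirubinemia: bilirubinemia hepatic side effect score drawn from the DILIps training data, a prediction system for drug-induced liver injury; call rule not given here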;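 on HepSE cholecystitis: Cholecystitis-related hepatic side effect score drawn from the DILIps (drug-induced liver injury prediction) training data set; call rule not given here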;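 on HepSE cholelithiasis: hepatic side effect score for cholelithiasis, drawn from the DILIps training data for predicting drug-induced liver injury; call rule not given here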;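 on HepSE cirrhosis: cirrhosis hepatic side effect score taken from the DILIps (drug-induced liver injury prediction) training set; call rule not given here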;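 on HepSE elevated liver function tests: hepatic side effect score for raised liver function tests, as recorded in the DILIps training set used for predicting drug-induced liver injury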; on HepSE hepatic failure: call rule not given here
Hepatotoxicity [5] = test system: Hepatotoxicity; remark: listed apart in the source; on HepSE hepatic failure: call rule not given here
Hepatotoxicity [6] = test system: Hepatotoxicity; remark: listed apart in the source; on HepSE hepatic failure: call rule not given here
Hepatotoxicity [7] = test system: Hepatotoxicity; remark: listed apart in the source
Hepatotoxicity [8] = test system: Hepatotoxicity; remark: listed apart in the source
Hepatotoxicity [9] = test system: Hepatotoxicity; remark: listed apart in the source
Hepatotoxicity [10] = test system: Hepatotoxicity; remark: listed apart in the source
Hepatotoxicity [11] = test system: Hepatotoxicity; remark: listed apart in the source
Hepatotoxicity [12] = test system: Hepatotoxicity; remark: listed apart in the source
Hepatotoxicity [13] = test system: Hepatotoxicity; remark: listed apart in the source
Hepatotoxicity [14] = test system: Hepatotoxicity; remark: listed apart in the source

Structure (SMILES)	HepSE_bilirubinemia (Hepatotoxicity [1])	HepSE_cholecystitis (Hepatotoxicity [2])	HepSE_cholelithiasis (Hepatotoxicity [3])	HepSE_cirrhosis (Hepatotoxicity [4])	HepSE_elevated liver function tests (Hepatotoxicity [5])	HepSE_hepatic failure (Hepatotoxicity [6])	HepSE_hepatic necrosis (Hepatotoxicity [7])	HepSE_hepatitis (Hepatotoxicity [8])	HepSE_hepatomegaly (Hepatotoxicity [9])	HepSE_jaundice (Hepatotoxicity [10])	HepSE_liver disease (Hepatotoxicity [11])	HepSE_liver fatty (Hepatotoxicity [12])	HepSE_liver function tests abnormal (Hepatotoxicity [13])	HepSE_Combined Scores (Hepatotoxicity [14])
COc1cc(NS(C)(=O)=O)ccc1Nc1c2ccccc2nc2ccccc12 [AMSACRINE]	0	0	0	0	0	1	0	1	0	1	0	0	0	3
O=C1CN2Cc3c(ccc(Cl)c3Cl)N=C2N1 [ANAGRELIDE]	0	0	0	0	1	0	0	0	0	0	0	0	0	1
CC(C)(C#N)c1cc(Cn2cncn2)cc(C(C)(C)C#N)c1 [ANASTROZOLE]	0	0	0	0	1	0	0	1	0	0	0	0	0	2
CCCCCOc1ccc(-c2ccc(-c3ccc(C(=O)N[C@H]4C[C@@H](O)[C@@H](O)NC(=O)[C@@H]5[C@@H](O)[C@@H](C)CN5C(=O)[C@H]([C@@H](C)O)NC(=O)[C@H]([C@H](O)[C@@H](O)c5ccc(O)cc5)NC(=O)[C@@H]5C[C@@H](O)CN5C(=O)[C@H]([C@@H](C)O)NC4=O)cc3)cc2)cc1 [ANIDULAFUNGIN] ({pTerphenylCO(4''-OnC5H11)}-[Orn(4R-OH,5R-OH)]T[Hyp][hTyr(3S-OH,4S-OH)]T[Pro(3S-OH,4S-Me)]; lactam 1-C)	0	0	0	0	0	0	1	0	0	0	0	0	1	2
CN1CCc2cccc3c2[C@H]1Cc1ccc(O)c(O)c1-3 [APOMORPHINE]	0	0	0	0	0	0	0	0	0	0	0	0	0	0
Nc1cc(Cl)c(N=C2NCCN2)c(Cl)c1 [APRACLONIDINE]	0	0	0	0	0	0	0	0	0	0	0	0	0	0
